This note sets out measurements from patent US6881747B2, “Small molecules for inhibition of function and drug delivery to leukocytes” (Science & Technology Corporation @UNM, priority 2002, dated 2005).

Chain of LFA-1 (P20701 26-1170): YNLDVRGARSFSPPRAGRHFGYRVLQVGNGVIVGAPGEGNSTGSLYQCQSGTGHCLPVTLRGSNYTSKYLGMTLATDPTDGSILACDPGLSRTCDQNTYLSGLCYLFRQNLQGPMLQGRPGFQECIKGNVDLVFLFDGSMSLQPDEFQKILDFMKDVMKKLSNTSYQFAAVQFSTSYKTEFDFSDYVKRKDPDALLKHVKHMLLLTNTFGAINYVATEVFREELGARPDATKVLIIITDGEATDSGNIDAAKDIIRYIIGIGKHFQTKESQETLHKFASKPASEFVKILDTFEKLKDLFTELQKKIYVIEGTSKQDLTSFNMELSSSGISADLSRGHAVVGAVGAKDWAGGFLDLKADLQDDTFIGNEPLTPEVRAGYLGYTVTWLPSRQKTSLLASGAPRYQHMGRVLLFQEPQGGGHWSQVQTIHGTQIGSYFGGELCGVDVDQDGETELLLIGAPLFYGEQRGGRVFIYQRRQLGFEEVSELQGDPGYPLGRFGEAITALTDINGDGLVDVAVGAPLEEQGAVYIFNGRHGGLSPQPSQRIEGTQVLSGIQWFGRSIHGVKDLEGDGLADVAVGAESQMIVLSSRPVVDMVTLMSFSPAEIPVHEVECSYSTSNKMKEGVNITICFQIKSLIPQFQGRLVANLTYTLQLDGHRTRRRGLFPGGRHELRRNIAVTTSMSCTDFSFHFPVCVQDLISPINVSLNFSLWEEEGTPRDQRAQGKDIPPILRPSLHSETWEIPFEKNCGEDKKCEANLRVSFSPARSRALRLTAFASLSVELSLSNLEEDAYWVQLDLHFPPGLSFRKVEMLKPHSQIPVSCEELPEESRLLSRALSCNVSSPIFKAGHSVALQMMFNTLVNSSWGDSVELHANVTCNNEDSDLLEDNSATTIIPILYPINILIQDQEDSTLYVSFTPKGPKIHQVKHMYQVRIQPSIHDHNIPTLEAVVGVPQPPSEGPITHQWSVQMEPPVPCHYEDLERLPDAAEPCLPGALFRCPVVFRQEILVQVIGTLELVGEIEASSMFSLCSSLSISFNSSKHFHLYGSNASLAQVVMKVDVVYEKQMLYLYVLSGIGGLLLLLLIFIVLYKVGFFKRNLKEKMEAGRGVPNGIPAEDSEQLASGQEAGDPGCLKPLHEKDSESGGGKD
Chain of LFA-1 (P05107 23-769 partner): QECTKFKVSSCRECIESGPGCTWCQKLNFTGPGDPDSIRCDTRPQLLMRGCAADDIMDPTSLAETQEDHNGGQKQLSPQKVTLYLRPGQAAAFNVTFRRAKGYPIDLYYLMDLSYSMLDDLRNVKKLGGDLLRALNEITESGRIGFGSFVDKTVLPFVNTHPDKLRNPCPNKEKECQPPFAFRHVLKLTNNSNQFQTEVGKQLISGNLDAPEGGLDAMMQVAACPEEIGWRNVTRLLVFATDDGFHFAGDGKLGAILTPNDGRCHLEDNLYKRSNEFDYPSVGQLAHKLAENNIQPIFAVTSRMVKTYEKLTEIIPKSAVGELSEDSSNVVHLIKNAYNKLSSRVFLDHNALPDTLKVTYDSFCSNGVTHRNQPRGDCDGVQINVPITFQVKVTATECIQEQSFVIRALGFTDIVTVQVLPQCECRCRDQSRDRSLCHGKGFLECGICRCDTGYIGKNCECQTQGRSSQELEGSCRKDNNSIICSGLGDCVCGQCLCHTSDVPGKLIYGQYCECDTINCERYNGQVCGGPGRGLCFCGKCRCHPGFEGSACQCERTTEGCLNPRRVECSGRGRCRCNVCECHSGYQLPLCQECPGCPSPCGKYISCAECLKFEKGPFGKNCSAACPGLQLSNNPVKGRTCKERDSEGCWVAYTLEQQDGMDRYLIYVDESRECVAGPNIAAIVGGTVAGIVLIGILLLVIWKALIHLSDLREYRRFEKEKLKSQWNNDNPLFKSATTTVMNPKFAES

This assay concerns the target LFA-1 (Homo sapiens, UniProt P20701). Kind of assay: Affinity (KD) of derivatives for LFA-1. Conditions: affinity for LFA-1; read-out: KD (Affinity constant). The assay is classed as binding.
One may read the Kd as the constant that tells how readily two partners part at equilibrium. On to `O=C1N[C@@H](Cc2ccccc2)C(=O)N1c1cc(Cl)cc(Cl)c1` [JEB I-18], for which the Kd stood at 3650 nM. As to `C[C@@]1(Cc2ccc(Br)cc2)C(=O)N(c2cc(Cl)cc(Cl)c2)C(=O)N1CCCCN` [Butylamino- Nor-BIRT, 1-(4-aminobutyl)-5-(4-bromobenzyl)-3-(3,5-dichlorophenyl)-5-methyl-imidazolidine-2,4-dione], the Kd came out at 75 nM. As for `O=C1N[C@H](Cc2ccccc2)C(=O)N1c1cc(Cl)cc(Cl)c1` [JEB I-19], the Kd worked out at 620 nM.

Turning to `CN1C(=O)N(c2cc(Cl)cc(Cl)c2)C(=O)[C@H]1Cc1ccccc1` [JEB I-22], the Kd came out at 1230 nM.

In the case of “5-(4-bromobenzyl)-3-(3,5-dichlorophenyl)-5-methyl-imidazolidine-2,4-dione-1-(1-butyl-4-fluoresceincarbamide) [Fluorescein- Butylamino- Nor-BIRT]”, the Kd amounted to 115 nM. With `CN1C(=O)N(c2cc(Cl)cc(Cl)c2)C(=O)[C@@H]1Cc1ccccc1` [JEB I-24], the Kd stood at 1200 nM.
